Key:
CDK9/cyclinT1 = target: T1, CDK9/cyclinT1 (Homo sapiens, UniProt P50750); assay: CDK9/cyclinT1 kinase assay, IMAP fluorescence polarization; format: biochemical
T1 construct: purchased Millipore
Summary of the method: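 Recombinant purified enzyme complexes assayed by IMAP fluorescence polarization with 1% final DMSO, 2 h at room temperature; stopped with 1× Developer buffer (85% A/15% B) plus IMAP beads 1/400, then 1 h further at room temperature. IC50 from normalized mP versus log compound concentration.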

CDK1/cyclinB = target: T2, CDK1/cyclinB (Homo sapiens, UniProt P06493); assay: CDK1/cyclinB kinase assay, IMAP fluorescence polarization; format: biochemical; settings: read-out: CDK1 IC50
T2 construct: purchased Millipore
T2 sequence (P06493 whole entry): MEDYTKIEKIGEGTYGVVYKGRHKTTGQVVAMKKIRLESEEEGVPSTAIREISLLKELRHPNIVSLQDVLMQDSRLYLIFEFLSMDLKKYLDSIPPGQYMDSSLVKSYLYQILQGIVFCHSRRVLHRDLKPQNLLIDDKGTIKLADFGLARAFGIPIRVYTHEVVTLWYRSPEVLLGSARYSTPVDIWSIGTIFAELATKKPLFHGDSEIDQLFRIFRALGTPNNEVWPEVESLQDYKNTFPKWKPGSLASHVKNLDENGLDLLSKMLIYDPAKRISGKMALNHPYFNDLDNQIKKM
T2 sequence (P14635 whole entry partner): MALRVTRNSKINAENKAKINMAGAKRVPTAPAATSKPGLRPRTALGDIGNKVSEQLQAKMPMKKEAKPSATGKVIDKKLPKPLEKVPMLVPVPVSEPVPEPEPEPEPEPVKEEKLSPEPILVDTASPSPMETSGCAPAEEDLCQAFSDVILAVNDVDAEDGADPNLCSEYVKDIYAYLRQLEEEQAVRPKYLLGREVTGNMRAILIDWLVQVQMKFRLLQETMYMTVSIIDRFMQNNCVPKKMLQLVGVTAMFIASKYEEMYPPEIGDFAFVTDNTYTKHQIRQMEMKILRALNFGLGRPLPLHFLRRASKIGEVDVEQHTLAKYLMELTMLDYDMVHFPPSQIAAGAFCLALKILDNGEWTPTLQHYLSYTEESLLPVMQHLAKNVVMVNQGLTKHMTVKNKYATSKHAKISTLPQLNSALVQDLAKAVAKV
Summary of the method: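 IMAP fluorescence polarization assay on recombinant purified enzyme, compounds at final 1% DMSO. Reaction run 2 h at room temperature, stopped, held 1 h more before reading polarization.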

CDK2/cyclinA = target: T3, CDK2/cyclinA (Homo sapiens, UniProt P24941); assay: CDK2/cyclinA kinase assay, IMAP fluorescence polarization; format: biochemical
T3 construct: purchased Millipore
Summary of the method: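 Recombinant purified enzyme reactions run 2 hours at room temperature with 1% DMSO final. Stopped with 1× Developer buffer (100% A) and IMAP beads 1/400, then 1 hour more before fluorescence polarization read. IC50 from mP values versus log concentration.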

[1] = test system: RNA Polymerase II CTD Serine2 Phosphorylation; assay: H5 (Ser2) Ab High Content Screen: RNA Polymerase II CTD Serine2 Phosphorylation Assay in Hep3B cells; format: cell-based; settings: Homo sapiens, 2 hours with compound, H5 antibody staining
Protocol: H5 (also referred as Ser2) Ab High Content Screen: RNA Polymerase II CTD Serine2 Phosphorylation Assay
1. Cells are plated into 384 well plates: 30 μl of Hep3B cells (4,000 cells/30 μl) in DMEM with 3% FBS are plated into wells of a tissue culture treated clear bottomed 384 well plate. Cells are allowed to adhere during an overnight incubation.
2. Cells are treated with compounds for two hours: 10 μl of DMEM with 3% FBS is added to each well with a final concentration of DMSO equal to 1%. Cells are incubated with compounds for 2 hours.
3. Cells are fixed and permeabilized. Cells are washed with 30 mM HEPES pH=7.3 then fixed in 4% paraformaldehyde in 30 mM HEPES pH=7.3 for one hour at room temperature. The fix is removed by washing the cells with Tris buffered saline (TBS) and the cells are permeabilized by incubation in TBS with 0.5% triton X-100 for 30 minutes at room temperature. Triton is removed by washing the cells with TBS.
4. […] Incubate primary H5 Ab (1/250 ) overnight at 4 degrees in TBS with 1% BSA and 0.1% Tween-20. The next day wash cells with TBS. […] Wash cells with PBS.
5. Measure staining using the In-cell Analyzer system from GE Healthcare.

CDK5 = CDK5 (Homo sapiens, UniProt Q00535); assay: CDK5 kinase assay (Table F); format: biochemical
Sequence of CDK5 (Q00535 whole entry, species assumed): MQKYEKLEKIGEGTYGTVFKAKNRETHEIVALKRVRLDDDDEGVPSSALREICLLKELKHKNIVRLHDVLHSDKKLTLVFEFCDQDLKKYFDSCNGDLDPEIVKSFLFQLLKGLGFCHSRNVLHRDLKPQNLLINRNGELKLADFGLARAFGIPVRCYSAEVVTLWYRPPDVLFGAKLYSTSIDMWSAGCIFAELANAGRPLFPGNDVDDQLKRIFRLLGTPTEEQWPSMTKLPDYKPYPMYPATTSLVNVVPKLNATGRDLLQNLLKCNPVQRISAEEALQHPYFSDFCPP
Sequence of CDK5 (Q15078 whole entry partner, species assumed): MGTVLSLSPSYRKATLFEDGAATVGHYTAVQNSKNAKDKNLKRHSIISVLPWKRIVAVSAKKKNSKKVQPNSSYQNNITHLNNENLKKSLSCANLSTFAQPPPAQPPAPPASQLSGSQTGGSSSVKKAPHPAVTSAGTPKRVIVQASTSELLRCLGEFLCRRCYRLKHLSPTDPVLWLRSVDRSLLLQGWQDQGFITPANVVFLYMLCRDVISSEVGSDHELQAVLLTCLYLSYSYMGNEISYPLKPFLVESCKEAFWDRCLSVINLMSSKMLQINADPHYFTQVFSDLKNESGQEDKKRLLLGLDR

CDK4 = CDK4 (Homo sapiens, UniProt P11802); assay: CDK4 kinase assay (Table F); format: biochemical
Sequence of CDK4 (P11802 whole entry, species assumed): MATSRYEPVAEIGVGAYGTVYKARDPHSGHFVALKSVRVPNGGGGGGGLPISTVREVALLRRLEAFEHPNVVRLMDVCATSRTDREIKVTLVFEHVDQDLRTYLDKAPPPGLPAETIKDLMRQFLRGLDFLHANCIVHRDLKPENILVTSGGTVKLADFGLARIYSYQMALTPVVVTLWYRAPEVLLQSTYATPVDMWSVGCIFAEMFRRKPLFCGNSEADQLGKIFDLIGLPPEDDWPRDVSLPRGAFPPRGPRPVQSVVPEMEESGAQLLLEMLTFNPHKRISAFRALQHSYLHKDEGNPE
Sequence of CDK4 (P24385 whole entry partner, species assumed): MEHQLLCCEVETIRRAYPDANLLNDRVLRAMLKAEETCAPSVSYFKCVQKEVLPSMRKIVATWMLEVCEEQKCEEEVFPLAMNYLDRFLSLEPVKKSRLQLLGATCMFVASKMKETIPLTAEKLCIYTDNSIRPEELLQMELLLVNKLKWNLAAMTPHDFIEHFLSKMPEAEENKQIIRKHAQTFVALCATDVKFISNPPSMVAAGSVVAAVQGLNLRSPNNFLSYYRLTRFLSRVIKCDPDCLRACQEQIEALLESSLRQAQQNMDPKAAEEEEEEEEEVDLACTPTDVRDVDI

CDK7/cyclinH/MAT1 = target: T4, CDK7/cyclinH/MAT1 (Homo sapiens, UniProt P50613); assay: CDK7/cyclinH/Mat1 kinase assay, IMAP fluorescence polarization; format: biochemical
T4 construct: purchased Millipore
T4 sequence (P50613 whole entry): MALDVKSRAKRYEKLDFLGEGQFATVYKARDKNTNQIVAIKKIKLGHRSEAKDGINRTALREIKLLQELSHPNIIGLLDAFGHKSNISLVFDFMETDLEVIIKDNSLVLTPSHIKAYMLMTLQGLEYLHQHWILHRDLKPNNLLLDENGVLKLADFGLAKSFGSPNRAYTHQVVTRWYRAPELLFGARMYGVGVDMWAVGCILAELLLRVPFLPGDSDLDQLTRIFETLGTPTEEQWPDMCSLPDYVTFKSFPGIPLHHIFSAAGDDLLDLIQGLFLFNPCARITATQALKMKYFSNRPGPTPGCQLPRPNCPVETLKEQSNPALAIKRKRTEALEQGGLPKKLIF
T4 sequence (P51946 whole entry partner): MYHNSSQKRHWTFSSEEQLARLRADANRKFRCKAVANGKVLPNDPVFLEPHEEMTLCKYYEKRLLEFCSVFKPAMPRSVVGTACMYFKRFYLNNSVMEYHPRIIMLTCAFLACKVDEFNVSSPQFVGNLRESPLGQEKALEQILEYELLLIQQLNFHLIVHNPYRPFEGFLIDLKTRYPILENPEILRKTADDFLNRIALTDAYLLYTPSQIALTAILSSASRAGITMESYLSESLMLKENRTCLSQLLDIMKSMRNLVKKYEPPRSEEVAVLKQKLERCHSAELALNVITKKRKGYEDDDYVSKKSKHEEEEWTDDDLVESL
T4 sequence (P51948 whole entry partner): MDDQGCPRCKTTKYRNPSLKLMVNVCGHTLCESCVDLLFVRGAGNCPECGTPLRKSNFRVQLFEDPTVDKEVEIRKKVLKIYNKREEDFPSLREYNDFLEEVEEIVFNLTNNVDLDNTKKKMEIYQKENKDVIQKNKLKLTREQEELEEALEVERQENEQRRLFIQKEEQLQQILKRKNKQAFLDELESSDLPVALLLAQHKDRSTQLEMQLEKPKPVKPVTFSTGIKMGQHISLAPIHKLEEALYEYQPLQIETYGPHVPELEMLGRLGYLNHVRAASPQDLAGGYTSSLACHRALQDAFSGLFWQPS
Protocol: Kinase assays were performed on recombinant purified enzymes using the non-radioactive IMAP fluorescence polarization assay format.
Compound stocks were prepared and diluted in DMSO and were added to kinase reactions at a 1/100 dilution for a final concentration of 1% DMSO. The components were added together to final concentrations listed in the tables below and incubated for two hours at room temperature.
The reactions were stopped by addition of stop solution.
CDK9/CDK1/CDK7: final stop concentration is 1× Developer buffer (85% A/15% B), IMAP beads 1/400
The samples were allowed to incubate for one more hour at room temperature and then the fluorescence polarization was measured. The plate normalized millipolarization (mP) values were plotted against the log of compound concentration for each compound and IC50 values were calculated using the spotfire IC50 calculator and confirmed by visual analysis.

T1 sequence (P50750 whole entry): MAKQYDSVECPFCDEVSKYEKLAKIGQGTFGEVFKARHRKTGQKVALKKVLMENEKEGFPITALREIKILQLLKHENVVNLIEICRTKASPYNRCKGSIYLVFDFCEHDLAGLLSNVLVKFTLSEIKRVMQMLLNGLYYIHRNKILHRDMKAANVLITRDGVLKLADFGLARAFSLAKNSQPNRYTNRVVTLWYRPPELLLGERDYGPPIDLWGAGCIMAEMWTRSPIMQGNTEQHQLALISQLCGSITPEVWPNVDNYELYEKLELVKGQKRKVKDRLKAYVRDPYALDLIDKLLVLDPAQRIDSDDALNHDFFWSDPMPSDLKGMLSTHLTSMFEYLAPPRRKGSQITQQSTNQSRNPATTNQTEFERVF
T1 sequence (O60563 whole entry partner): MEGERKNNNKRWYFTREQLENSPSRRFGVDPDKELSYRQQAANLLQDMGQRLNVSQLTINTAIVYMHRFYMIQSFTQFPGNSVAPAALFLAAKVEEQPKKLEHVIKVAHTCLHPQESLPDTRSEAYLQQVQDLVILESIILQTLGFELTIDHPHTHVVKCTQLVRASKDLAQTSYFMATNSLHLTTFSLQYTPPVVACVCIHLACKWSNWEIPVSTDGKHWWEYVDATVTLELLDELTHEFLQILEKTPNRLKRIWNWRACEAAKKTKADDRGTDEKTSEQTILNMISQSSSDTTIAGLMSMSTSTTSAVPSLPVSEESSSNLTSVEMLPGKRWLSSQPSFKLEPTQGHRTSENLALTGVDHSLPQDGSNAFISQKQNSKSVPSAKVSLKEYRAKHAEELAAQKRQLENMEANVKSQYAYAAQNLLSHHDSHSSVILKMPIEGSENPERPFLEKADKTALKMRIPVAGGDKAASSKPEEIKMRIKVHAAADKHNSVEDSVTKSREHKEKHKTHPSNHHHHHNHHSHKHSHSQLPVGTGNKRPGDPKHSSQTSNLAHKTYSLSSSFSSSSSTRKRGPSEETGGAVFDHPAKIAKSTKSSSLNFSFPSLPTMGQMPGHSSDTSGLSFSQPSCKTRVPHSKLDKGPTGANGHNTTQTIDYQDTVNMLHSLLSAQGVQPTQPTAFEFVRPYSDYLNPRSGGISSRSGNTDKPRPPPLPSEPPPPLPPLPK

IC50 (CDK9/cyclinT1)	IC50 (CDK1/cyclinB)	IC50 (CDK2/cyclinA)	IC50 [1]	IC50 (CDK5)	IC50 (CDK4)	IC50 (CDK7/cyclinH/MAT1)	Compound
< 5 µM	5 to 15 µM	< 5 µM	15 to 50 µM	5 to 15 µM	–	–	Cc1c(-c2ccnc(Nc3cccc(Cl)c3)n2)ccnc1NCCCN1CCCC1=O [Compound 24, 1-(3-{4-[2-(3-Chloro-phenylamino)-pyrimidin-4-yl]-3-methyl-pyridin-2-ylamino}-propyl)-pyrrolidin-2-one]
< 5 µM	< 5 µM	< 5 µM	< 5 µM	< 5 µM	< 5 µM	< 5 µM	N#Cc1cccc(Nc2nccc(-c3cccnc3NCCCN)n2)c1 [Compound 60, 3-{4-[2-(3-Amino-propylamino)-pyridin-3-yl]-pyrimidin-2-ylamino}-benzonitrile]
< 5 µM	< 5 µM	< 5 µM	< 5 µM	< 5 µM	5 to 15 µM	< 5 µM	Clc1cccc(Nc2nccc(-c3cccnc3NCCCn3ccnc3)n2)c1 [Compound 80, (3-Chloro-phenyl)-{4-[2-(3-imidazol-1-yl-propylamino)-pyridin-3-yl]-pyrimidin-2-yl}-amine]
< 5 µM	< 5 µM	< 5 µM	< 5 µM	< 5 µM	< 5 µM	–	CS(=O)(=O)c1cccc(Nc2nccc(-c3cccnc3NCCCN)n2)c1 [Compound 58, N-{3-[2-(3-Methanesulfonyl-phenylamino)-pyrimidin-4-yl]-pyridin-2-yl}-propane-1,3-diamine]
< 5 µM	< 5 µM	< 5 µM	< 5 µM	< 5 µM	< 5 µM	5 to 15 µM	COc1ncccc1-c1ccnc(Nc2cccc(S(N)(=O)=O)c2)n1 [Compound 99, 3-[4-(2-Methoxy-pyridin-3-yl)-pyrimidin-2-ylamino]-benzenesulfonamide]
< 5 µM	< 5 µM	< 5 µM	< 5 µM	< 5 µM	15 to 50 µM	< 5 µM	OCCCNc1ncccc1-c1ccnc(Nc2cccc(Cl)c2)n1 [Compound 74, 3-{3-[2-(3-Chloro-phenylamino)-pyrimidin-4-yl]-pyridin-2-ylamino}-propan-1-ol]
< 5 µM	< 5 µM	< 5 µM	< 5 µM	15 to 50 µM	< 5 µM	< 5 µM	CC(C)(CN)CNc1ncccc1-c1ccnc(Nc2cccc(Cl)c2)n1 [Compound 61, N-{3-[2-(3-Chloro-phenylamino)-pyrimidin-4-yl]-pyridin-2-yl}-2,2-dimethyl-propane-1,3-diamine]
< 5 µM	< 5 µM	< 5 µM	< 5 µM	–	–	–	COc1ncccc1-c1ccnc(Nc2cccc(-c3cnco3)c2)n1 [Compound 110, [4-(2-Methoxy-pyridin-3-yl)-pyrimidin-2-yl]-(3-oxazol-5-yl-phenyl)-amine]
< 5 µM	5 to 15 µM	< 5 µM	5 to 15 µM	–	5 to 15 µM	< 5 µM	CC(=O)NCCCNc1nccc(-c2ccnc(Nc3cccc(Cl)c3)n2)c1C [Compound 6, N-(3-{4-[2-(3-Chloro-phenylamino)-pyrimidin-4-yl]-3-methyl-pyridin-2-ylamino}-propyl)-acetamide]

Second part, the molecule before the results:

Compound	IC50 (CDK9/cyclinT1)	IC50 (CDK1/cyclinB)	IC50 (CDK2/cyclinA)	IC50 [1]	IC50 (CDK5)	IC50 (CDK4)	IC50 (CDK7/cyclinH/MAT1)
NCCCNc1ncccc1-c1ccnc(Nc2cccc(S(N)(=O)=O)c2)n1 [Compound 59, 3-{4-[2-(3-Amino-propylamino)-pyridin-3-yl]-pyrimidin-2-ylamino}-benzenesulfonamide]	< 5 µM	< 5 µM	< 5 µM	15 to 50 µM	< 5 µM	5 to 15 µM	–
Clc1cccc(Nc2nccc(-c3ccnc4ccccc34)n2)c1 [Compound 48, (3-Chloro-phenyl)-(4-quinolin-4-yl-pyrimidin-2-yl)-amine]	< 5 µM	< 5 µM	–	< 5 µM	< 5 µM	5 to 15 µM	–
NCCCCNc1ncccc1-c1ccnc(Nc2cccc(Cl)c2)n1 [Compound 84, N-{3-[2-(3-Chloro-phenylamino)-pyrimidin-4-yl]-pyridin-2-yl}-butane-1,4-diamine]	< 5 µM	< 5 µM	< 5 µM	< 5 µM	< 5 µM	< 5 µM	–
CNCCNc1nccc(-c2ccnc(Nc3cccc(Cl)c3)n2)c1C [Compound 3, N-{4-[2-(3-Chloro-phenylamino)-pyrimidin-4-yl]-3-methyl-pyridin-2-yl}-N′-methyl-ethane-1,2-diamine]	< 5 µM	< 5 µM	< 5 µM	< 5 µM	< 5 µM	< 5 µM	< 5 µM
COc1ccc(-c2ccnc(Nc3cccc(S(C)(=O)=O)c3)n2)c(OC)n1 [Compound 119, [4-(2,6-Dimethoxy-pyridin-3-yl)-pyrimidin-2-yl]-(3-methanesulfonyl-phenyl)-amine]	< 5 µM	< 5 µM	< 5 µM	> 50 µM	5 to 15 µM	15 to 50 µM	> 50 µM
CC(=O)NCCCNc1ncccc1-c1ccnc(Nc2cccc(Cl)c2)n1 [Compound 65, N-(3-{3-[2-(3-Chloro-phenylamino)-pyrimidin-4-yl]-pyridin-2-ylamino}-propyl)-acetamide]	< 5 µM	< 5 µM	< 5 µM	< 5 µM	< 5 µM	15 to 50 µM	–
COc1ncccc1-c1ccnc(Nc2cccc(S(C)(=O)=O)c2)n1 [Compound 93, (3-Methanesulfonyl-phenyl)-[4-(2-methoxy-pyridin-3-yl)-pyrimidin-2-yl]-amine]	< 5 µM	< 5 µM	< 5 µM	< 5 µM	< 5 µM	15 to 50 µM	–
Cc1c(-c2ccnc(Nc3cccc(Cl)c3)n2)ccnc1NCCCn1ccnc1 [Compound 23, (3-Chloro-phenyl)-{4-[2-(3-imidazol-1-yl-propylamino)-3-methyl-pyridin-4-yl]-pyrimidin-2-yl}-amine]	< 5 µM	5 to 15 µM	< 5 µM	5 to 15 µM	< 5 µM	15 to 50 µM	–
Cc1c(-c2ccnc(Nc3cccc(Cl)c3)n2)ccnc1NCc1ccccc1 [Compound 21, [4-(2-Benzylamino-3-methyl-pyridin-4-yl)-pyrimidin-2-yl]-(3-chloro-phenyl)-amine]	< 5 µM	< 5 µM	< 5 µM	5 to 15 µM	–	–	–
CS(=O)(=O)NCCCNc1ncccc1-c1ccnc(Nc2cccc(Cl)c2)n1 [Compound 72, N-(3-{3-[2-(3-Chloro-phenylamino)-pyrimidin-4-yl]-pyridin-2-ylamino}-propyl)-methanesulfonamide]	< 5 µM	< 5 µM	< 5 µM	< 5 µM	< 5 µM	15 to 50 µM	–
Cc1c(-c2ccnc(Nc3cccc(Cl)c3)n2)ccnc1Cl [Compound 2, [4-(2-Chloro-3-methyl-pyridin-4-yl)-pyrimidin-2-yl]-(3-chloro-phenyl)-amine]	< 5 µM	> 50 µM	> 50 µM	> 50 µM	–	–	–
CC(=O)NCC(C)(C)CNc1ncccc1-c1ccnc(Nc2cccc(Cl)c2)n1 [Compound 73, N-(3-{3-[2-(3-Chloro-phenylamino)-pyrimidin-4-yl]-pyridin-2-ylamino}-2,2-dimethyl-propyl)-acetamide]	< 5 µM	< 5 µM	< 5 µM	5 to 15 µM	5 to 15 µM	15 to 50 µM	–

— US20100048597A1 (Novartis AG, priority 2006, published 2010)
